From patent US10189841B2, “Purinones as ubiquitin-specific protease 1 inhibitors” (Forma Therapeutics, Inc., priority 2015, dated 2019)

Biological target: USP1 (construct USP1 (I-785, GG670, 671AA)/UAF1 (I-677)-Flag) (Homo sapiens (Human), UniProt O94782, G670A/G671A)
Assay: Ubiquitin-Rhodamine 110 assay for USP1 activity
Type: biochemical
Conditions: USP1/UAF1 25 pM, Ub-Rh110 25 nM, 30 min preincubation
In short: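 Ub-Rh110 (25 nM, ≪Km) cleavage read at ex 485/em 535 in Tris pH 8.0, CaCl2, GSH, Prionex, Triton X-100. The screen used 10 µM compound, 100 pM USP1/UAF1 and 45 min at RT.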

USP1 (construct USP1 (I-785, GG670, 671AA)/UAF1 (I-677)-Flag), sequence (O94782 whole entry G670A/G671A): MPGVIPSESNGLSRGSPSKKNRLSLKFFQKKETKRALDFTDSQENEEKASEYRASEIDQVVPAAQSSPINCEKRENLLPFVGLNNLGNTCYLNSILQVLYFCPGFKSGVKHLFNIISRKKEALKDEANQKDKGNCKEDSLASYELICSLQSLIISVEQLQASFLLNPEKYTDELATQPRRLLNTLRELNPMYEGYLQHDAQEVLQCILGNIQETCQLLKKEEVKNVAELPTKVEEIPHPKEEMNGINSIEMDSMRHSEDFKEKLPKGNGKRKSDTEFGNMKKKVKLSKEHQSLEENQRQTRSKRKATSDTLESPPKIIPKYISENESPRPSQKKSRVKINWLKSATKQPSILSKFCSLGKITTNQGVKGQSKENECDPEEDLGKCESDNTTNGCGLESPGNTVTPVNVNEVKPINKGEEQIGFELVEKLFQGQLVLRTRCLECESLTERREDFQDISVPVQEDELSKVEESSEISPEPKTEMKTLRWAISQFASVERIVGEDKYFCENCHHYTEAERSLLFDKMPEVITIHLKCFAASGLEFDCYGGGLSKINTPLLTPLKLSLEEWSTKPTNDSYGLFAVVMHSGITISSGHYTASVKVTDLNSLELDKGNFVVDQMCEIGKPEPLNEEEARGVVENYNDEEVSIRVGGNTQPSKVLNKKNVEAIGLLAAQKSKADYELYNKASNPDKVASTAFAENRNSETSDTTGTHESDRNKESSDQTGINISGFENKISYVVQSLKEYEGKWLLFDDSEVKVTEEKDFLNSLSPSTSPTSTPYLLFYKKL
USP1 (construct USP1 (I-785, GG670, 671AA)/UAF1 (I-677)-Flag), sequence (Q8TAF3 whole entry partner): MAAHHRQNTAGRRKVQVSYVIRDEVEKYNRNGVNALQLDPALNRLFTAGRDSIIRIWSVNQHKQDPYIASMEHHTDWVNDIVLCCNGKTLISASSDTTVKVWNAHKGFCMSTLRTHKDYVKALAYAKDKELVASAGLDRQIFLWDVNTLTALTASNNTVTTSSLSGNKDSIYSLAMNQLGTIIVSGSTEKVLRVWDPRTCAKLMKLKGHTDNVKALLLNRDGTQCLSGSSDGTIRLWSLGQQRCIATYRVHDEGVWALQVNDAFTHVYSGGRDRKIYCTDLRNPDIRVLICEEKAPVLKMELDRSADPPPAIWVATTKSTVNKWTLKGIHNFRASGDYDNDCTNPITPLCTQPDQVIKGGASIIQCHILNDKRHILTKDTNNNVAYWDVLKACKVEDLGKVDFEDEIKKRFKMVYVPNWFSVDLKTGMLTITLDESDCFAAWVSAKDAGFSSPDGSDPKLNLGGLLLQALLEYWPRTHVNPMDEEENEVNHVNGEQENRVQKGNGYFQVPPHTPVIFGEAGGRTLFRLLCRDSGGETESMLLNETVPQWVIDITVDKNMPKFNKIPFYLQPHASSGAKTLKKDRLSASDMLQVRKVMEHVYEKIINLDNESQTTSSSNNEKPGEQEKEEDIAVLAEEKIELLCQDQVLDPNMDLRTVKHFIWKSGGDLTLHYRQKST

Structure (SMILES) | IC50 [nM]
CC(=O)N1CC(n2cc(C(F)(F)F)nc2-c2ccc(Cn3c(=O)[nH]c4cnc(-c5ccccc5C(C)C)nc43)cc2)C1 [Compound I-476, 9-(4-(1-(1-acetylazetidin-3-yl)-4-(trifluoromethyl)-1H-imidazol-2-yl)benzyl)-2-(2-isopropylphenyl)-7,9-dihydro-8H-purin-8-one] | < 50
CC(=O)N1CC(n2cc(C(F)(F)F)nc2-c2ccc(Cn3c(=O)[nH]c4cnc(-c5cccnc5C(C)C)nc43)cc2)C1 [Compound I-477, 9-(4-(1-(1-acetylazetidin-3-yl)-4-(trifluoromethyl)-1H-imidazol-2-yl)benzyl)-2-(2-isopropylpyridin-3-yl)-7,9-dihydro-8H-purin-8-one] | < 50
CC(C)NC(=O)N1CCC(Cn2c(=O)n(C)c3cnc(-c4ccccc4C(C)C)nc32)CC1 [Compound I-478, N-isopropyl-4-((2-(2-isopropylphenyl)-7-methyl-8-oxo-7,8-dihydro-9H-purin-9-yl)methyl)piperidine-1-carboxamide] | > 2000
CC(C)c1ccccc1-c1ncc2c(n1)n(CC1CCN(C(=O)NC3CC3)CC1)c(=O)n2C [Compound I-479, N-cyclopropyl-4-((2-(2-isopropylphenyl)-7-methyl-8-oxo-7,8-dihydro-9H-purin-9-yl)methyl)piperidine-1-carboxamide] | > 2000
CNC(=O)N1CCC(c2ccn(-c3ccc(Cn4c(=O)[nH]c5cnc(-c6ccccc6C(C)C)nc54)cc3)n2)CC1 [Compound I-480, 4-(1-(4-((2-(2-isopropylphenyl)-8-oxo-7,8-dihydro-9H-purin-9-yl)methyl)phenyl)-1H-pyrazol-3-yl)-N-methylpiperidine-1-carboxamide] | < 50
CC(C)NC(=O)Nc1ccc(Cn2c(=O)n(C)c3cnc(-c4ccccc4C(C)C)nc32)cc1 [Compound I-481, 1-isopropyl-3-(4-((2-(2-isopropylphenyl)-7-methyl-8-oxo-7,8-dihydro-9H-purin-9-yl)methyl)phenyl)urea] | 50 to 200
COCCNC(=O)Nc1ccc(Cn2c(=O)n(C)c3cnc(-c4ccccc4C(C)C)nc32)cc1 [Compound I-482, 1-(4-((2-(2-isopropylphenyl)-7-methyl-8-oxo-7,8-dihydro-9H-purin-9-yl)methyl)phenyl)-3-(2-methoxyethyl)urea] | 200 to 2000
CC(C)c1ccccc1-c1ncc2c(n1)n(Cc1ccc(NC(=O)NC3CC3)cc1)c(=O)n2C [Compound I-483, 1-cyclopropyl-3-(4-((2-(2-isopropylphenyl)-7-methyl-8-oxo-7,8-dihydro-9H-purin-9-yl)methyl)phenyl)urea] | 200 to 2000
CC(C)NC(=O)N(C)c1ccc(Cn2c(=O)n(C)c3cnc(-c4ccccc4C(C)C)nc32)cc1 [Compound I-484, 3-isopropyl-1-(4-((2-(2-isopropylphenyl)-7-methyl-8-oxo-7,8-dihydro-9H-purin-9-yl)methyl)phenyl)-1-methylurea] | 200 to 2000
COCCNC(=O)N(C)c1ccc(Cn2c(=O)n(C)c3cnc(-c4ccccc4C(C)C)nc32)cc1 [Compound I-485, 1-(4-((2-(2-isopropylphenyl)-7-methyl-8-oxo-7,8-dihydro-9H-purin-9-yl)methyl)phenyl)-3-(2-methoxyethyl)-1-methylurea] | > 2000
CC(C)c1ccccc1-c1ncc2c(n1)n(Cc1ccc(N(C)C(=O)NC3CC3)cc1)c(=O)n2C [Compound I-486, 3-cyclopropyl-1-(4-((2-(2-isopropylphenyl)-7-methyl-8-oxo-7,8-dihydro-9H-purin-9-yl)methyl)phenyl)-1-methylurea] | 200 to 2000
CC(C)NC(=O)N1CCC(F)(Cn2c(=O)[nH]c3cnc(-c4ccccc4C(C)C)nc32)CC1 [Compound I-487, 4-fluoro-N-isopropyl-4-((2-(2-isopropylphenyl)-8-oxo-7,8-dihydro-9H-purin-9-yl)methyl)piperidine-1-carboxamide] | > 2000
CC(C)c1ccccc1-c1ncc2c(n1)n(Cc1ccc(NCC3CC3)cc1)c(=O)n2C [Compound I-488, 9-(4-((cyclopropylmethyl)amino)benzyl)-2-(2-isopropylphenyl)-7-methyl-7,9-dihydro-8H-purin-8-one] | 50 to 200
COCCNc1ccc(Cn2c(=O)n(C)c3cnc(-c4ccccc4C(C)C)nc32)cc1 [Compound I-489, 2-(2-isopropylphenyl)-9-(4-((2-methoxyethyl)amino)benzyl)-7-methyl-7,9-dihydro-8H-purin-8-one] | 50 to 200
CC(C)c1ccccc1-c1ncc2c(n1)n(Cc1ccc(N(C)CC3CC3)cc1)c(=O)n2C [Compound I-490, 9-(4-((cyclopropylmethyl)(methyl)amino)benzyl)-2-(2-isopropylphenyl)-7-methyl-7,9-dihydro-8H-purin-8-one] | 200 to 2000
COCCN(C)c1ccc(Cn2c(=O)n(C)c3cnc(-c4ccccc4C(C)C)nc32)cc1 [Compound I-491, 2-(2-isopropylphenyl)-9-(4-((2-methoxyethyl)(methyl)amino)benzyl)-7-methyl-7,9-dihydro-8H-purin-8-one] | 200 to 2000

Structure (SMILES) | IC50 [nM]
CC(C)c1ccccc1-c1ncc2c(n1)n(CC1CCN(c3nncs3)CC1)c(=O)n2C [Compound I-492, 9-((1-(1,3,4-thiadiazol-2-yl)piperidin-4-yl)methyl)-2-(2-isopropylphenyl)-7-methyl-7,9-dihydro-8H-purin-8-one] | > 2000
CC(C)c1ccccc1-c1ncc2c(n1)n(CC1CCN(c3ncccn3)CC1)c(=O)n2C [Compound I-493, 2-(2-isopropylphenyl)-7-methyl-9-((1-(pyrimidin-2-yl)piperidin-4-yl)methyl)-7,9-dihydro-8H-purin-8-one] | > 2000
Cc1nc(N2CCC(Cn3c(=O)n(C)c4cnc(-c5ccccc5C(C)C)nc43)CC2)c(C)s1 [Compound I-494, 9-((1-(2,5-dimethylthiazol-4-yl)piperidin-4-yl)methyl)-2-(2-isopropylphenyl)-7-methyl-7,9-dihydro-8H-purin-8-one] | 50 to 200
CC(C)c1ccccc1-c1ncc2[nH]c(=O)n(C3CCC34CN(c3cccnc3)C4)c2n1 (centres unmarked) [Compound I-495, 2-(2-isopropylphenyl)-9-(2-(pyridin-3-yl)-2-azaspiro[3.3]heptan-5-yl)-7,9-dihydro-8H-purin-8-one] | 200 to 2000
CCn1ccnc1-c1ccc(Cn2c(=O)n(C)c3cnc(-c4ccccc4C(C)C)nc32)cc1 [Compound I-496, 9-(4-(1-ethyl-1H-imidazol-2-yl)benzyl)-2-(2-isopropylphenyl)-7-methyl-7,9-dihydro-8H-purin-8-one] | < 50
CC(C)c1ccccc1-c1ncc2c(n1)n(Cc1ccc(-c3nccn3C(C)C)cc1)c(=O)n2C [Compound I-497, 9-(4-(1-isopropyl-1H-imidazol-2-yl)benzyl)-2-(2-isopropylphenyl)-7-methyl-7,9-dihydro-8H-purin-8-one] | < 50
COCCn1ccnc1-c1ccc(Cn2c(=O)n(C)c3cnc(-c4ccccc4C(C)C)nc32)cc1 [Compound I-498, 2-(2-isopropylphenyl)-9-(4-(1-(2-methoxyethyl)-1H-imidazol-2-yl)benzyl)-7-methyl-7,9-dihydro-8H-purin-8-one] | < 50
CC(C)c1ccccc1-c1ncc2c(n1)n(Cc1ccc(-c3nccn3C3CCNCC3)cc1)c(=O)n2C [Compound I-499, 2-(2-isopropylphenyl)-7-methyl-9-(4-(1-(piperidin-4-yl)-1H-imidazol-2-yl)benzyl)-7,9-dihydro-8H-purin-8-one] | < 50
CC(C)c1ccccc1-c1ncc2c(n1)n(Cc1ccc(-c3nccn3C(F)F)cc1)c(=O)n2C [Compound I-500, 9-(4-(1-(difluoromethyl)-1H-imidazol-2-yl)benzyl)-2-(2-isopropylphenyl)-7-methyl-7,9-dihydro-8H-purin-8-one] | < 50
Cc1cn(C)c(N2CCC(Cn3c(=O)n(C)c4cnc(-c5ccccc5C(C)C)nc43)CC2)n1 [Compound I-501, 9-((1-(1,4-Dimethyl-1H-imidazol-2-yl)piperidin-4-yl)methyl)-2-(2-isopropylphenyl)-7-methyl-7,9-dihydro-8H-purin-8-one] | 50 to 200
CC(C)c1ccccc1-c1ncc2[nH]c(=O)n(CC3CN(c4nccc(C(F)(F)F)n4)C3)c2n1 [Compound I-502, 2-(2-Isopropylphenyl)-9-((1-(4-(trifluoromethyl)pyrimidin-2-yl)azetidin-3-yl)methyl)-7,9-dihydro-8H-purin-8-one] | > 2000
Cc1cc(C(=O)N(C)C)nn1-c1ccc(Cn2c(=O)[nH]c3cnc(-c4ccccc4C(C)C)nc32)cc1 [Compound I-503, 1-(4-((2-(2-Isopropylphenyl)-8-oxo-7,8-dihydro-9H-purin-9-yl)methyl)phenyl)-N,N,5-trimethyl-1H-pyrazole-3-carboxamide] | < 50
Cc1cc(C(=O)N(C)C)nn1-c1ccc(Cn2c(=O)[nH]c3cnc(-c4ccccc4C4CC4)nc32)cc1 [Compound I-504, 1-(4-((2-(2-Cyclopropylphenyl)-8-oxo-7,8-dihydro-9H-purin-9-yl)methyl)phenyl)-N,N,5-trimethyl-1H-pyrazole-3-carboxamide] | 50 to 200
CC(C)c1ccccc1-c1ncc2[nH]c(=O)n(CC3(F)CCN(c4cccnc4)CC3)c2n1 [Compound I-505, 9-((4-Fluoro-1-(pyridin-3-yl)piperidin-4-yl)methyl)-2-(2-isopropylphenyl)-7,9-dihydro-8H-purin-8-one] | 200 to 2000
CC(C)c1ccccc1-c1ncc2[nH]c(=O)n(Cc3ccc(-c4nc(C(F)(F)F)cn4CCO)cc3)c2n1 [Compound I-506, 9-(4-(1-(2-hydroxyethyl)-4-(trifluoromethyl)-1H-imidazol-2-yl)benzyl)-2-(2-isopropylphenyl)-7,9-dihydro-8H-purin-8-one] | < 50
CCn1c(=O)n(Cc2ccc(-c3nc(C(F)(F)F)cn3C)cc2)c2nc(-c3cccnc3C(C)C)ncc21 [Compound I-507, 7-Ethyl-2-(2-isopropylpyridin-3-yl)-9-(4-(1-methyl-4-(trifluoromethyl)-1H-imidazol-2-yl)benzyl)-7,9-dihydro-8H-purin-8-one] | < 50
